Patent US20090217393A1, “Growth Promoting Agent and Life Prolonging Agent” (B FOOD SCIENCE CO., LTD., priority 2005, published 2009)

Experiments:
Radish sprouts = assay: Radish sprout cultivation test; assay type: in vivo
Procedure: Radish sprouts were cultivated in 0.75% agar mediums containing erythritol, mannitol, and sorbitol each at concentrations of 0.05% by mass, 0.1% by mass, and 0.5% by mass as sugar alcohols, and in an agar medium containing no sugar alcohol (0%). 3 and 6 days after germination, the lengths of radish sprouts were measured.

[1] = system: yeast Saccharomyces cerevisiae; assay: Yeast culture test; assay type: cell-based; conditions: SD medium containing 0.006% by mass of erythritol
Procedure: A yeast Saccharomyces cerevisiae was cultured in an SD medium containing 0.006% by mass of erythritol (erythritol-added group; the present invention) and in an SD medium containing no erythritol (no-erythritol-added group; control). 27 hours later, absorbances at 660 nm were measured.

Arabidopsis plants = assay: Arabidopsis plant cultivation test; assay type: in vivo; conditions: Murashige & Skoog medium containing 0.06% by mass of erythritol; vs control
From the text: Arabidopsis plants were separately inoculated into a Murashige & Skoog medium containing 0.06% by mass of erythritol (erythritol-added group; the present invention) and a medium containing no erythritol (no-erythritol-added group; control), followed by comparison of growth of the Arabidopsis plants.

[2] = system: Layers (white Plymouth Rock); assay: Layer growth test; assay type: in vivo; conditions: feed containing 5% by mass of erythritol
Procedure: Layers (white Plymouth Rock) were divided into a group fed with a feed containing 5% by mass of erythritol (erythritol-added group; the present invention) and a group fed with a feed containing no erythritol (no-erythritol-added group; control), and bred. The breeding was performed for 24 months, which was generally defined so as to generate economic benefits, and the survival rates were continuously watched. Meanwhile, average body weights (g) were continuously watched for four weeks.

shiitake = assay: Mushroom (shiitake) cultivation test; assay type: in vivo; conditions: for Number of mushroom with pileus diameter of 5 cm or more: 8 days later, control 2
Procedure: A shiitake cultivation test was performed using a commercially available shiitake cultivation kit.
The cultivation kit is a product produced by hardening wood chips prepared by pulverizing broad-leaved tree, together with a nutritional supplement and a shiitake fungus into a block form. The blocks were separately immersed in aqueous solutions containing 0% by mass (no addition), 0.05% by mass, 0.5% by mass, and 5% by mass of erythritol, and the surfaces of the blocks were washed. Then, the blocks were placed in plastic bags to prevent drying, and the tops of the bags were closed with clothespins, followed by cultivation of the shiitake while adjusting the temperature to 23° C. during the daytime and to 8° C. during the nighttime. Whenever the surfaces of the blocks were dried, the surfaces of the blocks were moisturized using a spray with the aqueous solutions containing erythritol at the above-mentioned each concentration. 3 days later, the shiitake started to germinate on the blocks, and 8 days later, the diameter and number of each pileus of the shiitake were measured.

Crj:BDF1 mice (male) = assay: Mouse breeding test; assay type: in vivo; conditions: feed containing 5% by mass of erythritol
From the text: Crj:BDF1 mice (male) were divided into a group fed with a feed containing 5% by mass of erythritol (erythritol-added group; the present invention) and a group fed with a feed containing no erythritol (no-erythritol-added group; control), and bred, followed by investigation of 50% survival times, 75% survival times, average survival times, survival rates, and maximum survival times.

[3] = 0.05% by mass sugar alcohol in 0.75% agar medium, After 3 days
[4] = 0.05% by mass sugar alcohol in 0.75% agar medium, After 6 days
[5] = 0.1% by mass sugar alcohol in 0.75% agar medium, After 3 days
[6] = 0.1% by mass sugar alcohol in 0.75% agar medium, After 6 days
[7] = 0.5% by mass sugar alcohol in 0.75% agar medium, After 3 days
[8] = 0.5% by mass sugar alcohol in 0.75% agar medium, After 6 days

## OC[C@@H](O)[C@@H](O)[C@H](O)[C@@H](O)CO [sorbitol]
Radish sprouts; [3]
  Lengths of radish sprouts: 30 mm
Radish sprouts; [4]
  Lengths of radish sprouts: 68 mm
Radish sprouts; [5]
  Lengths of radish sprouts: 31 mm
Radish sprouts; [6]
  Lengths of radish sprouts: 64 mm
Radish sprouts; [7]
  Lengths of radish sprouts: 27 mm
Radish sprouts; [8]
  Lengths of radish sprouts: 52 mm

## OC[C@@H](O)[C@@H](O)CO [erythritol]
[1]
  yeast proliferation effect: confirmed
[1]; 27 hours later, control 2.65
  absorbance at 660 nm: 2.88
[1]; under a microscope
  sizes of the yeast cells larger than control: about 20%
Arabidopsis plants
  growth promoting effect on roots and leaves/stems: confirmed
Radish sprouts; [3]
  Lengths of radish sprouts: 46 mm
Radish sprouts; [4]
  Lengths of radish sprouts: 109 mm
Radish sprouts; 0.05 to 0.5% by mass in agar medium
  length of radish sprouts / growth promoting effect compared with no-sugar-alcohol-added group: particularly excellent growth promoting effects
Radish sprouts; [5]
  Lengths of radish sprouts: 30 mm
Radish sprouts; [6]
  Lengths of radish sprouts: 76 mm
Radish sprouts; [7]
  Lengths of radish sprouts: 31 mm
Radish sprouts; [8]
  Lengths of radish sprouts: 87 mm
[2]; breeding for 24 months, FIG. 2
  survival rate compared with control: increased
[2]; watched for four weeks, FIG. 3
  average body weight compared with control: increased
shiitake; 0.05% by mass erythritol aqueous solution
  Number of mushroom with pileus diameter of 5 cm or more: 8
shiitake; 0.5% by mass erythritol aqueous solution
  Number of mushroom with pileus diameter of 5 cm or more: 5
shiitake; 5.0% by mass erythritol aqueous solution
  Number of mushroom with pileus diameter of 5 cm or more: 9
shiitake; all the concentrations (0.05, 0.5, 5% by mass)
  numbers of mushrooms with a pileus diameter of 5 cm or more compared with control: significantly increase
Crj:BDF1 mice (male); Crj:BDF1 male mice
  50% survival time: 927 days
  75% survival time: 850 days
  Average survival time: 768 days
  Maximum survival time: 1,080 days
Crj:BDF1 mice (male); vs no-erythritol-added group
  50% survival time compared with control: prolonged
  75% survival time compared with control: prolonged
  average survival time compared with control: prolonged
  maximum survival time compared with control: no significant difference
  survival rate compared with control: prolonged

## OC[C@@H](O)[C@@H](O)[C@H](O)[C@H](O)CO [mannitol]
Radish sprouts; [3]
  Lengths of radish sprouts: 15 mm
Radish sprouts; [4]
  Lengths of radish sprouts: 59 mm
Radish sprouts; [5]
  Lengths of radish sprouts: 29 mm
Radish sprouts; [6]
  Lengths of radish sprouts: 61 mm
Radish sprouts; [7]
  Lengths of radish sprouts: 24 mm
Radish sprouts; [8]
  Lengths of radish sprouts: 55 mm
